These results are taken from patent publication US7504519B2, “Derivatives of pyrazoline, procedure for obtaining them and use thereof as therapeutic agents” (Laboratorios Del Dr. Esteve, S.A., priority 2004, dated 2009).

Counter-ions that a name gives are not always drawn.

Data set [1] has as its system rats. The experiment in a line: Analgesia test on rats (carrageenan subplantar injection, thermal stimulus, Hargreaves method). Format: in vivo. The note with it: analgesic activity, rat, 2.5 mg/kg i.v., compound given 3 h after carrageenan; for % activity At 30 min.: 30 min after administration; for % activity At 120 min.: 120 min after administration. The protocol: Biological Activity Analgesia Test on Rats
The analgesic activity of the compounds of the invention is tested as described in the publication by K. Hargreaves et al., Pain, 32. 77-88. (1988).
Briefly, the rats are transferred to the experimentation laboratory, where they remain in groups of five in Makrolon cages with barred floors to prevent coprophagy. At the start of the experiment, water and food were removed and animals weighed and labelled appropriately.
Each rat receives by subplantar injection 0.1 ml of sterile saline solution in the rear left leg, followed by 0.1 ml 2% (weight/volume) carrageenan suspension in sterile saline solution in the rear right leg.
Three hours following the subplantar injections of carrageenan and vehicle, each rat was intravenously administered with compounds to be tested, dissolved in sterile saline serum, at a dose of 1 ml per kg of body weight. Then after administration of compounds, analgesic activity values were readed. For this purpose, rats were transferred to the methacrylate chambers of an analgesimeter with a glass floor. Once the period of acclimatisation in the chambers had elapsed (i.e., after 5 minutes), an infrared radiation lamp capable of producing thermal stimulation was placed under the rats' legs. Readings of analgesic activity were taken at 15, 30, 60 and 120 minutes following administration of the products or their vehicle.
The thermal stimulus, calibrated beforehand to 10 amperes, is applied to each of the rear legs at intervals of at least 1 minute. The response of the rats to the pain consists in raising the leg, thus avoiding contact with the floor.

Broadly, the melting point is the temperature, or range, at which the solid turns liquid.

`O=C(NS(=O)(=O)c1ccc(N2N=C(C(F)(F)F)CC2c2ccccc2)cc1)c1ccc(C(F)(F)F)cc1` (stereo not shown) (as salt: sodium) [Compound 22, N-(4-Trifluoromethylbenzoyl)-4-(4,5-dihydro-5-phenyl-3-trifluoromethyl-pyrazole-1-yl)-benzenesulphonamide]: the melting point was over 280 °C.

Regarding `CCC(=O)NS(=O)(=O)c1ccc(C2CC(C(F)(F)F)=NN2c2ccccc2)cc1` (stereo not shown) (as salt: sodium) [Compound 32, N-Propionyl-4-(4,5-dihydro-1-phenyl-3-trifluoromethyl-1H-pyrazole-5-yl)benzenesulphonamide], the melting point is over 280 °C.

`CCCCOC(=O)NS(=O)(=O)c1ccc(C2CC(C(F)(F)F)=NN2c2ccccc2)cc1` (stereo not shown) (as salt: sodium) [Compound 37, N-Butoxycarbonyl-4-(4,5-dihydro-1-phenyl-3-trifluoromethyl-1H-pyrazole-5-yl)benzenesulphonamide]: the melting point was 223 to 230 °C.

As for `O=C(CO)NS(=O)(=O)c1ccc(N2N=C(C(F)(F)F)CC2c2ccccc2)cc1` (stereo not shown) [Compound 3, N-(2-Hydroxyacetyl)-4-(4,5-dihydro-5-phenyl-3-trifluoromethyl-pyrazole-1-yl)-benzenesulphonamide], in data set [1], the “% activity At 30 min.” value worked out at 41% and the “% activity At 120 min.” value was 40%.

Take `O=C(NS(=O)(=O)c1ccc(N2N=C(C(F)(F)F)CC2c2ccccc2)cc1)c1ccc(C(F)(F)F)cc1` (stereo not shown) [Compound 22, N-(4-Trifluoromethylbenzoyl)-4-(4,5-dihydro-5-phenyl-3-trifluoromethyl-pyrazole-1-yl)-benzenesulphonamide]: in data set [1], the “% activity At 30 min.” value was determined as 72% and the “% activity At 120 min.” value was determined as 76%.

For the molecule `COC(=O)c1ccc(NS(=O)(=O)c2ccc(N3N=C(C(F)(F)F)CC3c3ccccc3)cc2)cc1` (stereo not shown) [Compound 25, 4-[4-(4,5-dihydro-5-phenyl-3-trifluoromethyl-pyrazole-1-yl)-benzenesulphonylamine] benzoic acid methylic ester], in data set [1], the “% activity At 30 min.” value was 67% and the “% activity At 120 min.” value is 66%.

Take `COC(=O)NS(=O)(=O)c1ccc(C2CC(C(F)(F)F)=NN2c2ccccc2)cc1` (stereo not shown) [Compound 31, N-Methoxycarbonyl-4-(4,5-dihydro-1-phenyl-3-trifluoromethyl-1H-pyrazole-5-yl)benzenesulphonamide]: in data set [1], the “% activity At 30 min.” value is recorded as 76% and the “% activity At 120 min.” value came to 49%.

With `CCC(=O)NS(=O)(=O)c1ccc(C2CC(C(F)(F)F)=NN2c2ccccc2)cc1` (stereo not shown) [Compound 32, N-Propionyl-4-(4,5-dihydro-1-phenyl-3-trifluoromethyl-1H-pyrazole-5-yl)benzenesulphonamide], in data set [1], the “% activity At 30 min.” value came out at 72% and the “% activity At 120 min.” value is 51%.

Regarding `CCCCOC(=O)NS(=O)(=O)c1ccc(C2CC(C(F)(F)F)=NN2c2ccccc2)cc1` (stereo not shown) [Compound 37, N-Butoxycarbonyl-4-(4,5-dihydro-1-phenyl-3-trifluoromethyl-1H-pyrazole-5-yl)benzenesulphonamide], in data set [1], the “% activity At 30 min.” value amounted to 68% and the “% activity At 120 min.” value worked out at 75%.

Take “N-(4-Trifluoromethyl)benzoil-4-(4,5-dihydro-1-phenyl-3-trifluoromethyl-1H-pyrazole-5-yl)benzenesulphonamide [Compound 39]”: in data set [1], the “% activity At 30 min.” value turned out to be 92% and the “% activity At 120 min.” value was 57%.

With “N-Ethyloxicarbonyl-4-(4,5-dihydro-5-phenyl-3-trifluoromethyl-pyrazole-1-yl)-benzenesulphonamide [Compound 4]”, in data set [1], the “% activity At 30 min.” value is given as 78% and the “% activity At 120 min.” value stood at 48%.
